# Test results published in PubChem BioAssay (NCI).
# Several values for one entry are separate records, joined by “and”; a condition that tells them apart may be missing. Equal entries are not always repeated.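 The compound was tested at five concentrations on cells cultured in 96-well plates, with a 48-hour exposure period. Here, GI50 denotes the concentration required for 50% inhibition of growth. TGI marks complete inhibition of growth.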
# Columns and labels:
# Assay in all cases: inhibition of tumour cell growth, NCI panel, 48 h
# [1] = test system: PC-3 prostate
# [2] = test system: MDA-MB-231 breast
# [3] = test system: UACC-62 melanoma
# [4] = test system: HCC-2998 colon
# [5] = test system: RXF 393 renal
# [6] = test system: MDA-MB-435
# [7] = test system: U251 CNS
# [8] = test system: MOLT-4 leukemia
# [9] = test system: SF-268 CNS
# [10] = test system: IGROV1 ovarian
Structure (SMILES),GI50 [1],TGI [1],GI50 [2],TGI [2],GI50 [3],TGI [3],GI50 [4],TGI [4],GI50 [5],TGI [5],GI50 [6],TGI [6],GI50 [7],TGI [7],GI50 [8],TGI [8],GI50 [9],TGI [9],GI50 [10],TGI [10]
O=[As]c1ccc(C(=O)c2ccc(Oc3ccccc3)cc2)cc1 (stereo not given),34.9 nM,142 nM,54.7 nM,192 nM,59 nM,185 nM,72.7 nM,213 nM,40.4 nM,143 nM,39.6 nM,176 nM,18.1 nM,58.6 nM,33.3 nM,190 nM,34.4 nM,129 nM,44 nM,219 nM
CCCCCc1c(C)[nH]c(/C=C2\N=C(c3ccc[nH]3)C=C2OCc2ccccc2)c1C,41.3 nM and 18.3 nM,2060 nM and 1170 nM,24.4 nM,257 nM and 76.8 nM,23 nM,53.8 nM and 50.6 nM,41.9 nM and 38 nM,1700 nM and 1240 nM,69.7 nM and 47.3 nM,768 nM and 374 nM,36.7 nM and 32.4 nM,296 nM and 134 nM,28.9 nM and 23.9 nM,195 nM and 122 nM,36.5 nM and 40.2 nM,1330 nM and 7140 nM,48.8 nM and 38.5 nM,1600 nM and 1330 nM,161 nM and 59.6 nM,1790 nM and 1400 nM
COc1cc(/C=N\O)nc(-c2ccccn2)c1,,> 100000 nM,,> 100000 nM,,8280 nM,,> 100000 nM,,> 100000 nM,,> 100000 nM,,> 100000 nM,,> 100000 nM,,> 100000 nM,,13200 nM
COc1cccc(C2=C(c3cn(C)c4cccc(OC)c34)C(=O)NC2=O)c1,8020 nM,> 25000 nM,17900 nM,> 25000 nM,7170 nM,> 25000 nM,> 25000 nM,> 25000 nM,5030 nM,> 19000 nM,832 nM,> 9170 nM,11500 nM,> 25000 nM,12500 nM,> 25000 nM,16400 nM,> 25000 nM,7490 nM,> 25000 nM
O=C(Nc1ccc(I)cc1F)c1cc(I)ccc1O,1140 nM,9760 nM,639 nM,2640 nM,312 nM,1220 nM,2630 nM,15100 nM,779 nM,3240 nM,723 nM,7900 nM,661 nM,> 100000 nM,965 nM,3500 nM,704 nM,> 100000 nM,611 nM,> 100000 nM
CCOC(=S)SCN1C(=O)c2ccccc2S1(=O)=O,33000 nM,> 100000 nM,19300 nM,40900 nM,20000 nM,38000 nM,16200 nM,29800 nM,6970 nM,21600 nM,6500 nM,24400 nM,18700 nM,37300 nM,32700 nM,> 100000 nM,29500 nM,> 100000 nM,18500 nM,52400 nM
